# In publication PMC4485020 (The Journal of General Physiology, 2015):
# Molecular target: hTRPM3 (transient receptor potential melastatin 3) (Homo sapiens, UniProt Q9HCF6)
# Format: cell-based
# Chain of hTRPM3 (transient receptor potential melastatin 3) (Q9HCF6 whole entry): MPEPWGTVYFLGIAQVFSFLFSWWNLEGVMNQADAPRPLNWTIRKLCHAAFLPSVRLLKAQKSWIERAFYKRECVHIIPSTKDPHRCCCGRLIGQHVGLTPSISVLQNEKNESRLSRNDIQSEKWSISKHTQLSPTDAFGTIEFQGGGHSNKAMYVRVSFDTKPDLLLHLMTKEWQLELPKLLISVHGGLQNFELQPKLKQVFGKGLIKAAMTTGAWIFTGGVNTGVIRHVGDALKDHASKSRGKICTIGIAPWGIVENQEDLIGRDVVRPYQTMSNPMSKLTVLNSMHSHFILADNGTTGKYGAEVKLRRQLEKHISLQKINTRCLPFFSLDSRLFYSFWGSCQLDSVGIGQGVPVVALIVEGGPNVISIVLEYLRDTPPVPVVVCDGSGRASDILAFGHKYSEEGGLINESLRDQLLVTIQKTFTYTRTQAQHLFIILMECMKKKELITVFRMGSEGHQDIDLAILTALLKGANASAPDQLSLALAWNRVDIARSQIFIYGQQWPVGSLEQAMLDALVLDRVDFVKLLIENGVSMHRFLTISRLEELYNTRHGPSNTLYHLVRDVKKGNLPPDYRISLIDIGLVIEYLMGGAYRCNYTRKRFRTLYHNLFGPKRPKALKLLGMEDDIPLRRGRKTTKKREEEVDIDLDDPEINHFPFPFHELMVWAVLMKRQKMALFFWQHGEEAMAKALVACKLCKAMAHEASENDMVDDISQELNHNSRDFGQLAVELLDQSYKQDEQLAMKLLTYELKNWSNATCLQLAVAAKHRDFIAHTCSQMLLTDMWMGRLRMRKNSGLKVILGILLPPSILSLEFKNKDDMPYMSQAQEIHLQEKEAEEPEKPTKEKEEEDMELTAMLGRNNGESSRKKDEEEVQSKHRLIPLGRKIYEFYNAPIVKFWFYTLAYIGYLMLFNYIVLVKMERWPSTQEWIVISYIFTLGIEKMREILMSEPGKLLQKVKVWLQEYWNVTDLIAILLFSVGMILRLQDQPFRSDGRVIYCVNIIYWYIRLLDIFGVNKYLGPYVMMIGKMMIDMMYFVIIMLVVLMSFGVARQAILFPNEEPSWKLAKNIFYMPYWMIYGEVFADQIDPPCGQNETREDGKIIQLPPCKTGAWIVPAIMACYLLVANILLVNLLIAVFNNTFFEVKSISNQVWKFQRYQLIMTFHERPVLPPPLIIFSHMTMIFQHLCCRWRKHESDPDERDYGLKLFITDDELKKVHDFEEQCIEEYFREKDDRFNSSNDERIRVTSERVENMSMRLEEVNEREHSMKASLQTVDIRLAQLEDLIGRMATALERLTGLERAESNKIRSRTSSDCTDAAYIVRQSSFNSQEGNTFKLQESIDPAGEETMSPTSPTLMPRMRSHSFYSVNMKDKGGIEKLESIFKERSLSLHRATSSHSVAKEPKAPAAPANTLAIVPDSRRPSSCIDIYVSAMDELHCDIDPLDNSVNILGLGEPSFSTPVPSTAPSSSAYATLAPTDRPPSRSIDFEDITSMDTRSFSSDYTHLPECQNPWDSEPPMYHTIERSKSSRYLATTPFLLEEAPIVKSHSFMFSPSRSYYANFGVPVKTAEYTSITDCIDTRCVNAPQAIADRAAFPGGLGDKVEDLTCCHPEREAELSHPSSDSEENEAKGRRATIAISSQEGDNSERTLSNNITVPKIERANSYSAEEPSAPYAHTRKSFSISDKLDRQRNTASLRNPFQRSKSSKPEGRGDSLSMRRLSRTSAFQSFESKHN
smiles,measurement,value
"CCCCCCCC(=O)OC[C@H](COP(=O)(O)O[C@@H]1[C@H](O)[C@H](O)[C@@H](OP(=O)(O)O)[C@H](OP(=O)(O)O)[C@H]1O)OC(=O)CCCCCCC [diC8 PI(4,5)P2]",EC50,18 µM
